Laboratory results: patent publication US20200061062A1, “INHIBITORS OF HUMAN PHOSPHATIDYLINOSITOL 3-KINASE DELTA” (ICOS Corporation, priority 2000, published 2020)

Key:
PI3Kβ [1] = target: T1, PI3Kβ (Homo sapiens, UniProt P42338); assay: Biochemical assay using 200 μM ATP, Beta
T1 construct: His tag (pFastbac HTa vector) (N); FLAG (N); made in house; host or cells: Sf21 insect cells (baculovirus)

PI3Kβ [2] = target: T1, PI3Kβ; assay: Biochemical assay of PI3K potency and selectivity using 20 μM ATP, Beta; details: 20 μM ATP; for Beta/Delta Ratio: ratio of IC50 values, > = hypothetical ratio with 100 μM substituted for the missing IC50; for IC50: read-out: Beta IC50; for remaining activity at 100 µM: read-out: Beta: percent activity remaining at 100 μM, 100 μM compound did not inhibit by at least 50%
Procedure: (§1) Recombinant PI3K heterodimeric complexes consisting of a p110 catalytic subunit and a p85 regulatory subunit were overexpressed using the BAC-TO-BAC® HT baculovirus expression system (GIBCO/BRL), and then purified for use in biochemical assays. The four Class I PI 3-kinases were cloned into baculovirus vectors as follows:
The 3× substrate for the HTS contained 0.6 mM Na2ATP, 0.10 mCi/mL γ-[^32P]ATP (NEN, Pittsburgh, Pa.), 6 μM PIP2/PS liposomes (Avanti Polar Lipids, Inc., […].), in 20 mM HEPES, pH 7.4.

[3] = system: Murine splenocytes (Balb/c); assay: B cell proliferation in response to cell surface IgM stimulation; type: cell-based; details: Mus musculus, Splenocyte; stimulated B cell proliferation; read-out: Mouse BCR Stim (EC50)
Procedure: In the above experiment, the B cells were stimulated using PANSORBIN®. The effect of D-000 on B cell proliferation response when they were stimulated through their cell surface IgM using anti-IgM antibody also was measured. Murine splenocytes (Balb/c) were plated into 96-well microtiter plates at 2×10^5 cells per well in 10% FBS/RPMI. Appropriate dilutions of test inhibitor in complete medium were added to the cells and the plates were incubated for 30-60 minutes prior to the addition of stimulus. Following the preincubation with test inhibitor an F(ab′)2 preparation of goat antibody specific for the μ-chain of mouse IgM was added to the wells at a final concentration of 25 μg/mL. The plates were incubated at 37° C. for 3 days and 1 μCi of [^3H]-thymidine was added to each well for the final four hours of culture. The plates were harvested onto fiber filters washed and the incorporation of radiolabel was determined using a beta counter (Matrix 96, Packard Instrument Co., Downers Grove, Ill.) and expressed as counts per minute (CPM).
(§2) Using the methods described in Examples 3-5, above, compounds of the invention were tested for inhibitory activity and potency in assays of stimulated B and T cell proliferation, neutrophil (PMN) migration, and neutrophil (PMN) elastase release. In Table 4, the values shown are effective concentrations of the compound (EC50; μM). Where no value is given, no assay was performed.

PI3Kα [4] = target: T2, PI3Kα (Homo sapiens, UniProt P42336); assay: Biochemical assay of PI3K potency and selectivity using 20 μM ATP, Alpha; details: for Alpha/Delta Ratio / IC50: 20 μM ATP; for Alpha/Delta Ratio: ratio of IC50 values, > = hypothetical ratio with 100 μM substituted for the missing IC50; for IC50: read-out: Alpha IC50; for remaining activity at 100 µM: read-out: percent activity remaining at 100 μM, 20 μM ATP, 100 μM compound did not inhibit by at least 50%
T2 construct: His tag (pFastbac HTb vector) (N); FLAG; made in house; host or cells: Sf21 insect cells (baculovirus)
T2 sequence (P42336 whole entry): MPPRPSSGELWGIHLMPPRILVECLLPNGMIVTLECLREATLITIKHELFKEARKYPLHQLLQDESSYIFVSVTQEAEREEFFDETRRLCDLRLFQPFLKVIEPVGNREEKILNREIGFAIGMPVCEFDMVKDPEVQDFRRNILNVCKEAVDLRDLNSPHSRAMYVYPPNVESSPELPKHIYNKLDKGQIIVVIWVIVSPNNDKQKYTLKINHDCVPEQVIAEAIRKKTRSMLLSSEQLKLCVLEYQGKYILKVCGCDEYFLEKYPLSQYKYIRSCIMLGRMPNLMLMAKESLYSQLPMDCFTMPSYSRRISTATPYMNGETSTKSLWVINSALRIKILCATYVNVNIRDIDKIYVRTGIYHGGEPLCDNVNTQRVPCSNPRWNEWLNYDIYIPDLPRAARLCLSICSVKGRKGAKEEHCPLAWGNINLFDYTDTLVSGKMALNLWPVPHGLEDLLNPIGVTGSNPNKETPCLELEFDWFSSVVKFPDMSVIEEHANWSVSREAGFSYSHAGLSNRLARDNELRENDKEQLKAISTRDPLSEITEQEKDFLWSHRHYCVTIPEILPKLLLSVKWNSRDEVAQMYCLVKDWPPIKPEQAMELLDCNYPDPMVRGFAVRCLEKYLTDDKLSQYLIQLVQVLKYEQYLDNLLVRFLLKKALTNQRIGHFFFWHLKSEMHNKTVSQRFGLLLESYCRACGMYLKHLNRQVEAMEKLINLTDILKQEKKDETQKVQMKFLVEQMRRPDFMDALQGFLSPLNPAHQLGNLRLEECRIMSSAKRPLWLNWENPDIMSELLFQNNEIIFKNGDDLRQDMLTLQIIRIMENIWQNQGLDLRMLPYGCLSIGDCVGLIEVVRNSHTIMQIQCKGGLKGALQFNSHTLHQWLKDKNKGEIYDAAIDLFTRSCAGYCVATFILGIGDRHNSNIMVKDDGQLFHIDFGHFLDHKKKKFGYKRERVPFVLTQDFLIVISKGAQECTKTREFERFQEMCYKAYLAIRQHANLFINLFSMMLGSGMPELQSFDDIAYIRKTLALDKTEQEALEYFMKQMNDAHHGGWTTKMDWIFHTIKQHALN
T2 sequence (P27986 whole entry partner): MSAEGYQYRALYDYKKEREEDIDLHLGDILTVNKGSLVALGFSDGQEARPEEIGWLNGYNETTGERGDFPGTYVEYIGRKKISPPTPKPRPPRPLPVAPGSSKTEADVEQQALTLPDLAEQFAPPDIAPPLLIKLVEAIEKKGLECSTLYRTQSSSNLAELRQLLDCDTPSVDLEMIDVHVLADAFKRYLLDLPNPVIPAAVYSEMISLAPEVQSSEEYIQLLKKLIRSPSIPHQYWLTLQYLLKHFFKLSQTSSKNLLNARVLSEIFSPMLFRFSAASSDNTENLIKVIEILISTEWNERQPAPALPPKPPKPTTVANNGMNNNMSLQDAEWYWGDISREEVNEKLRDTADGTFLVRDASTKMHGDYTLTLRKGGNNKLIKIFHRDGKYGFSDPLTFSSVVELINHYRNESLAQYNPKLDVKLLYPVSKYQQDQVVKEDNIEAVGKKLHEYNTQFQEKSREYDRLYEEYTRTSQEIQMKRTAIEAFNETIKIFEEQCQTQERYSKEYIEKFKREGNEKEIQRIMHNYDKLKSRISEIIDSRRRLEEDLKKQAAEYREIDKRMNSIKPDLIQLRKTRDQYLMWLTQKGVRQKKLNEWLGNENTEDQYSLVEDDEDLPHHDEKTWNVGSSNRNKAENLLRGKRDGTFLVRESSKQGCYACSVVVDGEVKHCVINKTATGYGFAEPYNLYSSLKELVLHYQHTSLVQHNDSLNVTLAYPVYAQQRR
From the text: as §1, with “follows: […]” for “follows:”

PI3Kγ = target: T3, PI3Kγ (Homo sapiens, UniProt P48736); assay: Biochemical assay using 200 μM ATP, Gamma
T3 construct: His tag (pFastbac HTb vector) (N); FLAG (N); made in house; host or cells: Sf21 insect cells (baculovirus)
T3 sequence (P48736 whole entry): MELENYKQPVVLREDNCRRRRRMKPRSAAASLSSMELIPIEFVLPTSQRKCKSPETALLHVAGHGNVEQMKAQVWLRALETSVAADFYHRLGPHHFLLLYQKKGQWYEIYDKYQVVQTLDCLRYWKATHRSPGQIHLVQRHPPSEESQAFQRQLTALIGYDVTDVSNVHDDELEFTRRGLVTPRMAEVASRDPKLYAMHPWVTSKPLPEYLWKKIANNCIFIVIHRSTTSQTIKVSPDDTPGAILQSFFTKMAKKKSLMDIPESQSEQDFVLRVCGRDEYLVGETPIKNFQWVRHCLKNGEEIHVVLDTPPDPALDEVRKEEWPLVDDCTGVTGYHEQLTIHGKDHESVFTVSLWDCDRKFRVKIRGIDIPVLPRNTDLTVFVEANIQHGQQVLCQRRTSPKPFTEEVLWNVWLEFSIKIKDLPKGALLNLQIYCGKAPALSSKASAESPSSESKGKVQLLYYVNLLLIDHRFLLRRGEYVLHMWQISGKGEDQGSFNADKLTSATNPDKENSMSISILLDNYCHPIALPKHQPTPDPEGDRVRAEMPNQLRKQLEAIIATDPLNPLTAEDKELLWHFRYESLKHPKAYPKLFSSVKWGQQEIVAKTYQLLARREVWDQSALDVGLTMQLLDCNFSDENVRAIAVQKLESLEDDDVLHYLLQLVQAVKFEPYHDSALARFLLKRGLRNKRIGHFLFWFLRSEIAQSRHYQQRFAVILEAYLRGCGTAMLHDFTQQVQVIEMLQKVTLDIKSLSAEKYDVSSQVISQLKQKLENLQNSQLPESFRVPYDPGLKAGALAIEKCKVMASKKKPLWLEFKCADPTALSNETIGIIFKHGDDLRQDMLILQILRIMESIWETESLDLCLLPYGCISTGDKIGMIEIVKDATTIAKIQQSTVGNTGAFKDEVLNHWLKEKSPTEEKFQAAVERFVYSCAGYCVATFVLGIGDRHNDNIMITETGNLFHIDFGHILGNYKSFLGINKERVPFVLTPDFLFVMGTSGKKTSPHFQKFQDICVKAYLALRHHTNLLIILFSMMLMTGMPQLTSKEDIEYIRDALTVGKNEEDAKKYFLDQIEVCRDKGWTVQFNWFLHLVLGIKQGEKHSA
Procedure: (§3) PI3Kδ catalyzes a phosphotransfer from γ-[^32P]ATP to PIP2/PS liposomes at the D3′ position of the PIP2 lipid inositol ring. This reaction is MgCl2 dependent and is quenched in high molarity potassium phosphate buffer pH 8.0 containing 30 mM EDTA. […] The reaction products (and all unlabelled products) are transferred to a 96-well, prewetted PVDF filter plate, filtered, and washed in high molarity potassium phosphate. Scintillant is added to the dried wells and the incorporated radioactivity is quantitated.
(§4) This dilution established a final concentration of 200 μM ATP in the reaction volume. The reaction was stopped with 150 μL quench buffer (1.0 M potassium phosphate pH 8.0, 30 mM EDTA). A portion of the quenched solution (180 μL) was then transferred to a PVDF filter plate (Millipore # MAIP NOB prewetted with sequential 200 μL washes of 100% methanol, water, and finally 1.0 M potassium phosphate pH 8.0 wash buffer).
(§5) The PVDF filter plate was aspirated under moderate vacuum (2-5 mm Hg), washed with 5×200 μL of wash buffer, and then dried by aspiration. The filter was subsequently blotted, allowed to air dry completely, and inserted into a Wallac counting cassette with 50 μL of Ecoscint scintillation cocktail added per well.
(§6) Subsequent selectivity assays were done similarly using the same 3× substrate stocks except they contained 0.05 mCi/mL γ[^32P]ATP and 3 mM PIP2. Subsequent selectivity assays also used the same 3× enzyme stocks, except they now contained 3 nM of any given PI3K isoform.
(§7) For all selectivity assays, the test compounds were weighed out and dissolved into 10-50 mM stocks in 100% DMSO (depending on their respective solubilities) and stored at −20° C. […] From these dilutions, 20 μL was added into the assay wells alongside water blanks used for the enzyme (positive) control and the no enzyme (background) control.
(§8) This selectivity protocol is identical to that described above, except the 3× stock ATP concentration was 600 μM.

PI3Kα [5] = target: T2, PI3Kα; assay: Biochemical assay using 200 μM ATP, Alpha
Procedure: as §3, §4, §5, §6, §7, §8

PI3Kδ [6] = target: T4, PI3Kδ (Homo sapiens, UniProt O00329, S253N); assay: Biochemical assay using 200 μM ATP, Delta;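 further: radiometric filter-binding assay: PI3Kδ transfers ³²P from γ-[³²P]ATP onto PIP2/PS liposomes, counted by scintillation, enzyme-only wells as positive control, no-enzyme wells as background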
T4 sequence (O00329 whole entry S253N): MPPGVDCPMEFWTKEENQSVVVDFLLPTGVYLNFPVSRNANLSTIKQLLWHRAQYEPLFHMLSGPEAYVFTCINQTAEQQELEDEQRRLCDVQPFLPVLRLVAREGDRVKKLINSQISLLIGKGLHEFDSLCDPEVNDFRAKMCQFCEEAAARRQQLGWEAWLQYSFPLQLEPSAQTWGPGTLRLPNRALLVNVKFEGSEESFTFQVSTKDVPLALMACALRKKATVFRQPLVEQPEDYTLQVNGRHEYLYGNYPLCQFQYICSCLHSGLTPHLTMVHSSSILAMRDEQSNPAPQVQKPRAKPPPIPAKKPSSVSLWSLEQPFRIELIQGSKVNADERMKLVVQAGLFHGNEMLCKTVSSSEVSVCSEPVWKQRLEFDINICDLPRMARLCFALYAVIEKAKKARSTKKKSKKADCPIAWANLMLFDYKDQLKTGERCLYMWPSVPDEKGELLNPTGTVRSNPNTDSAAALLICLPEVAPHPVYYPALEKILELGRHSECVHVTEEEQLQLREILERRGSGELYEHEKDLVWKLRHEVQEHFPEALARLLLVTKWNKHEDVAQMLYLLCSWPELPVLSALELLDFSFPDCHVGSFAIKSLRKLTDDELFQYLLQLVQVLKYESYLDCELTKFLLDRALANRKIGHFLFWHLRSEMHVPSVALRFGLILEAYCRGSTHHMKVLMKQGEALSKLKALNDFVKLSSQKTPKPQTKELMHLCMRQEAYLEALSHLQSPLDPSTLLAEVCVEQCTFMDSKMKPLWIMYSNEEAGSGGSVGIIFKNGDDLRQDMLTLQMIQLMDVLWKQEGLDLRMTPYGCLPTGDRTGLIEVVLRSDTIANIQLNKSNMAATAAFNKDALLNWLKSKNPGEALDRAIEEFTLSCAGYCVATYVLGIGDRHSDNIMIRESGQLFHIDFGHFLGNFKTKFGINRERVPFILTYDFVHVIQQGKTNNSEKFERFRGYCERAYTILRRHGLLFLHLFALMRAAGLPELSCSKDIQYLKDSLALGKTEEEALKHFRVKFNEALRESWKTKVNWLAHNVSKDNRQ
T4 sequence (P27986 whole entry partner): as the sequence (P27986 whole entry partner) above
Procedure: as §3, §4, §5, §6, §7, §8

human neutrophils = assay: Elastase exocytosis from neutrophils (fMLP-induced); type: cell-based; details: neutrophil (PMN) elastase release
Procedure: Aliquots (8 mL) of heparinized blood from healthy volunteers were layered on 3 mL cushions of 7.3% FICOLL® (Sigma, St. Louis, Mo.) and 15.4% HYPAQUE® (Sigma) and centrifuged at 900 rpm for 30 min at room temperature in a table top centrifuge (Beckman). The neutrophil-rich band just above the FICOLL®-HYPAQUE® cushion was collected and washed with Hanks' balanced salt solution (HBSS) containing 0.1% gelatin. Residual erythrocytes were removed by hypotonic lysis with 0.2% NaCl. The neutrophil preparation was washed twice with HBSS containing 0.1% gelatin and used immediately.
In addition to superoxide generation, activated neutrophils also respond by releasing several proteases that are responsible for the destruction of tissues and cartilage during inflammation. As an indication of protease release, the effect of D-000 on elastase exocytosis was measured. Elastase exocytosis was quantitated by modification of the procedure described by Ossanna et al. (J Clin Invest, 77:1939-1951 (1986)), as follows. Purified human neutrophils (0.2×10^6) (treated with either DMSO or a serial dilution of D-000 in DMSO) were stimulated with fMLP in PBS containing 0.01 mg/mL cytochalasin B, 1.0 μM sodium azide (NaN3), 5 μg/mL L-methionine and 1 μM fMLP for 90 min at 37° C. in a 96-well plate. At the end of the incubation period, the plate was centrifuged for 5 min at 1000 rpm, and 90 μL of the supernatant was transferred to 10 μL of 10 mM solution of an elastase substrate peptide, MeO-suc-Ala-Ala-Pro-Val-pNA, wherein MeO-suc=methoxy-succinyl; pNA=p-nitroanilide (Calbiochem, San Diego, Calif.). Absorbance at 410 nm was monitored for 2 hr in a 96-well plate reader. To measure the relative amounts of elastase excytosed, all absorbance values were normalized to the values without any inhibitor. […] Inhibition was half-maximal at a concentration of about 2-3 μM D-000.
as §2

PI3Kδ [7] = target: T4, PI3Kδ; assay: Biochemical assay of PI3K potency and selectivity using 20 μM ATP, Delta; set-up: His tag (pFastbac HTb vector) (N); FLAG; made in house; host or cells: Sf21 insect cells (baculovirus); details: 20 μM ATP; read-out: Delta IC50
From the text: as §1, with “follows: […]” for “follows:”

T1 sequence (P42338 whole entry): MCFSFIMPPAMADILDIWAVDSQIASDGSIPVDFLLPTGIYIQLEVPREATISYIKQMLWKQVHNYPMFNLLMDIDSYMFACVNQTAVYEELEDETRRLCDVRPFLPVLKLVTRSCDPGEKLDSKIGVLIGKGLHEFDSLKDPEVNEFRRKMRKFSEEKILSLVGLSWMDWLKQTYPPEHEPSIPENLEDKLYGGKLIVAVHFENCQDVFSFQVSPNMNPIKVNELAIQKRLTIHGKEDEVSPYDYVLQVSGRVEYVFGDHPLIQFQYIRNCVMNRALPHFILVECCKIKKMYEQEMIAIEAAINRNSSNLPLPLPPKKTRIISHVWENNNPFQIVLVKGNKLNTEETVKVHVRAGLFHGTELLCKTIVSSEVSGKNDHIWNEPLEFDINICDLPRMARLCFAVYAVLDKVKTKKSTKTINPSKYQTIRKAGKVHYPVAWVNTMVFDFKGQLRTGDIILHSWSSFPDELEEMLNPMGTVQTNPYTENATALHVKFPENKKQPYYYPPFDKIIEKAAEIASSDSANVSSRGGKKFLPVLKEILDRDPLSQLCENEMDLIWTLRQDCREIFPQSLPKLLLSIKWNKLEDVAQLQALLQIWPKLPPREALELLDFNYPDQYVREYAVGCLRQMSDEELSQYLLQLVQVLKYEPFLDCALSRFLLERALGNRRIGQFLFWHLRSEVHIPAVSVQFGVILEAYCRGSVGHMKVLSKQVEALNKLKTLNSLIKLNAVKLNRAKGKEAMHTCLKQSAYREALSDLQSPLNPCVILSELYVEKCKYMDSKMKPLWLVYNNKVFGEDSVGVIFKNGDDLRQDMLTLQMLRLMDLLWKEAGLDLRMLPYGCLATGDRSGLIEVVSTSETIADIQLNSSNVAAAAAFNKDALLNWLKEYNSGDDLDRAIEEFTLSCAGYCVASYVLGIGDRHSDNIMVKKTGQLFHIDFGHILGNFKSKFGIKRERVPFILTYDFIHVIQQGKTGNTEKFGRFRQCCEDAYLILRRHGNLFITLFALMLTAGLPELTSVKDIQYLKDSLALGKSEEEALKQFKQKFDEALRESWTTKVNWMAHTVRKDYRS
T1 sequence (P27986 whole entry partner): as the sequence (P27986 whole entry partner) above

| Structure (SMILES) | Beta/Delta Ratio (PI3Kβ [1]) | IC50 (PI3Kβ [1]) | Beta/Delta Ratio (PI3Kβ [2]) | IC50 (PI3Kβ [2]) | EC50 [3] | Alpha/Delta Ratio (PI3Kα [4]) | IC50 (PI3Kα [4]) | Gamma/Delta Ratio (PI3Kγ) | IC50 (PI3Kγ) | Alpha/Delta Ratio (PI3Kα [5]) | IC50 (PI3Kδ [6]) | EC50 (human neutrophils) | IC50 (PI3Kδ [7]) | melting point | remaining activity at 100 µM (PI3Kα [4]) | remaining activity at 100 µM (PI3Kβ [2]) |
| --- | --- | --- | --- | --- | --- | --- | --- | --- | --- | --- | --- | --- | --- | --- | --- | --- |
| Nc1ncnc2c1ncn2Cc1nc2cccc(Cl)c2c(=O)n1-c1ccccc1-c1ccccc1 [Compound D-009, 2-(6-Aminopurin-9-ylmethyl)-3-biphenyl-2-yl-5-chloro-3H-quinazolin-4-one] | 26 | 18000 nM | 50 | 5000 nM | 300 ± 200 nM | 683 | 82000 nM | 76 | 53000 nM | 200 | 700 nM | 10500 nM | 120 nM | 299.9 to 300.1 °C | – | – |
| Nc1ncnc2c1ncn2Cc1nc2cccc(Cl)c2c(=O)n1-c1ccccc1F [Compound D-012, 2-(6-Aminopurin-9-ylmethyl)-5-chloro-3-(2-fluorophenyl)-3H-quinazolin-4-one] | 83 | 108000 ± 4000 nM | 65 | 11000 nM | 300 ± 200 nM | >588 | – | 38 | – | 107 | 1300 ± 400 nM | 300 nM | 170 nM | 295.6 to 295.8 °C (dec.) | 69% | – |
| O=c1c2cc(O)ccc2nc(CSc2ncnc3[nH]cnc23)n1-c1ccccc1Cl [Compound D-024, 3-(2-Chlorophenyl)-6-hydroxy-2-(9H-purin-6-ylsulfanylmethyl)-3H-quinazolin-4-one] | – | – | >38 | – | – | 38 | 100000 nM | – | – | – | – | 2900 nM | 2600 nM | 186 to 214 °C (dec.) | – | 76% |
| O=c1c2cc(F)c(F)cc2nc(CSc2ncnc3[nH]cnc23)n1-c1ccccc1Cl [Compound D-027, 3-(2-Chlorophenyl)-6,7-difluoro-2-(9H-purin-6-ylsulfanylmethyl)-3H-quinazolin-4-one] | 26 | 110000 nM | 97 | 58000 nM | > 2000 nM | >169 | – | 15 | 60000 nM | 37 | 4000 nM | 2000 nM | 600 nM | 207.8 °C | 59% | – |
| O=c1c2cc(F)ccc2nc(CSc2ncnc3[nH]cnc23)n1-c1ccccc1Cl [Compound D-028, 3-(2-Chlorophenyl)-6-fluoro-2-(9H-purin-6-ylsulfanylmethyl)-3H-quinazolin-4-one] | 101 | – | 69 | 13000 nM | 400 ± 200 nM | >556 | – | 18 | 29000 nM | 125 | 1600 nM | 1000 nM | 180 nM | 232.8 to 233 °C | 67% | – |
| Cc1cccc2nc(CSc3ncnc4[nH]cnc34)n(-c3ccccc3F)c(=O)c12 [Compound D-031, 3-(2-Fluorophenyl)-5-methyl-2-(9H-purin-6-ylsulfanylmethyl)-3H-quinazolin-4-one] | 707 | 137000 ± 23000 nM | 83 | 10000 nM | 200 ± 100 nM | >833 | 74000 nM | 802 | 155000 ± 60000 nM | 903 | 200 ± 10 nM | 700 ± 100 nM | 120 nM | 151.9 to 152.2 °C | – | – |
| Cc1cccc2nc(CSc3ncnc4[nH]cnc34)n(-c3c(Cl)cccc3Cl)c(=O)c12 [Compound D-034, 3-(2,6-dichlorophenyl)-5-methyl-2-(9H-purin-6-ylsulfanylmethyl)-3H-quinazolin-4-one] | 85 | 103000 ± 4000 nM | 74 | 11000 nM | 600 ± 400 nM | 131 | 19000 nM | 28 | 34000 ± 1000 nM | 153 | 1200 ± 300 nM | – | 150 nM | – | – | – |
| CCOC(=O)Cn1c(CSc2ncnc3[nH]cnc23)nc2cccc(F)c2c1=O [Compound D-045, [5-fluoro-4-oxo-2-(9H-purin-6-ylsulfanylmethyl)-4H-quinazolin-3-yl]acetic acid ethyl ester] | – | – | >13 | – | – | >13 | – | – | – | – | – | 9000 nM | 7600 nM | – | 98% | 74% |
| O=c1c2ccccc2nc(CSc2ncnc3[nH]cnc23)n1-c1ccccc1 [Compound D-121, 3-phenyl-2-(9H-purin-6-ylsulfanylmethyl)-3H-quinazolin-4-one] | 138 | – | >211 | – | 1400 nM | >211 | – | 136 | – | 158 | 900 nM | – | 480 nM | – | 69% | 70% |
